ChEMBL document CHEMBL1129988, “4-substituted cubylcarbinylamines: a new class of mechanism-based monoamine oxidase B inactivators” (J Med Chem, 1997)

Assay: Partition ratio was determined

Row | Partition ratio | Compound
1 | 277 | NCC12C3C4C1C1C2C3C41c1ccccc1 (stereo not drawn)
2 | 152 | NCC12C3C4C5C3C1C5C42 (stereo not drawn)
3 | 536 | NCC12C3C4C1C1C2C3C41C1CC1 (stereo not drawn)
